“Also recorded” adds a separate entry of the source. Where two headings read alike, the source gives them in different places.
Tests used:
[1] = tested on: HbA1C (glycated hemoglobin) expression; assay: Larval diabetic zebrafish assay, Western blot of HbA1C; assay type: in vivo; settings: diabetic zebrafish larvae, 10 μM
Procedure: Following isolation, derivatization, and analysis of compounds 41-48 through the in vitro panel of assays, the mace natural products and licarin A derivatives were investigated in the larval diabetic zebrafish assay for potential antidiabetic activity. Western blot analysis of zebrafish expression levels for glycated hemoglobin, metabolic enzymes, and molecular targets NFκB and PPAR-γ was performed to evaluate potential lead improvement and to discover possible mechanisms of action.
(§1) Wild-type zebrafish were sorted into 24-well microplates with 10 fish per well for a four-phase treatment cycle. At 72 hpf, type 2 diabetes was induced by administering 0.5 mg/mL alloxan in fish water for percutaneous absorption. After three hours of alloxan treatment, phase two of the treatment cycle was initiated by administering 10 μM doses of natural product compounds 41-43 (FIG. 4) or derivatives 45-48 (FIG. 6) with 0.01% DMSO in system water. At 78 hpf, the incubation solution was changed to 10 mg/ml D-glucose for 30 minutes, followed by a phase-four rinse in fresh system w Following the four-phase treatment cycle, zebrafish treatment groups were snap frozen in microcentrifuge tubes on dry ice, stored overnight at −80° C., thawed, and homogenized with 2 μL PBS per animal. Following centrifugation (60 minutes at 4° C. and 17,000 rpm), protein content of the homogenate supernatant was determined using the Pierce BCA Protein Assay kit (Pierce Biotechnology). Homogenates were analyzed by Western blot with equal amounts of total protein (20 μg) in each sample and using 4×LDS loading buffer (NuPAGE Life Technologies). The immunoblot samples were heated at 95° C. for 5 minutes and loaded onto NuPAGE Bis-Tris 4-12% gradient SDS-PAGE gels.
(§2) Electrophoresis was performed with NuPAGE MES SDS Running Buffer and using the XCell SureLock Mini-Cell Electrophoresis System (Life Technologies). Proteins separated on the gel were transferred to a PVDF membrane using TBST buffer. The blots were blocked in 3% BSA in TBST and subsequently probed overnight with primary antibodies (1:1000 in 1% BSA in TBST) against each target of interest. Following TBST rinses, secondary HRP-conjugated antibodies (1:2000) were applied to the membrane for 60 minutes. The HRP conjugated antibodies were detected using SuperSignal West Femto chemiluminescent substrate (Pierce Biotechnology) and immunoblot images were captured using the luminometer and Lumi Analyst 3.0 software.
(§3) Band densities were determined using ImageJ Gel Analysis to determine expression levels of each protein of interest. Expression levels of HbA1C, PPAR-γ, and NFκB were organized into a bar graphs (FIG. 5) with band densities calculated in comparison to the housekeeping gene β-actin, normalized to the untreated diabetic group (B) of zebrafish. […].

[2] = target: T1, NFκB (Homo sapiens, UniProt Q04206); assay: NFκB assay (EZ-Detect Transcription Factor Assay kit; TNF-α-treated HeLa cells, nuclear extracts); assay type: cell-based
T1 construct: endogenous in cells; host or cells: HeLa cells (ATCC), nuclear extract
Procedure: To assess the ability of natural product extracts and compounds to inhibit the specific binding of activated NFκB transcription factor to the biotinylated consensus sequence, the EZ-Detect™ Transcription Factor Assay kit (Pierce Biotechnology) was used according to the kit manual and established protocol. HeLa cells (ATCC) were treated with each test sample and TNF-α, nuclear extracts harvested using the NE-PER kit (Pierce Biotechnology), and protein content equilibrated using the Pierce BCA Protein Assay kit (Pierce Biotechnology). Specific binding was detected through quantification of chemiluminescent signal in a plate reader (FLUOstar Optima, BMG Labtechnologies GmbH, Inc.).

[3] = target: T2, PPAR-γ (Homo sapiens, UniProt P37231); assay: PPAR-γ ELISA assay (PPAR-α,γ,δ Complete Transcription Factor Assay Kit; CCD-112CoN or Hela cells, nuclear extracts); assay type: cell-based
T2 construct: endogenous in cells; host or cells: CCD-112CoN normal colon cells or HeLa cells (ATCC), nuclear extract
T2 sequence (P37231 1-505): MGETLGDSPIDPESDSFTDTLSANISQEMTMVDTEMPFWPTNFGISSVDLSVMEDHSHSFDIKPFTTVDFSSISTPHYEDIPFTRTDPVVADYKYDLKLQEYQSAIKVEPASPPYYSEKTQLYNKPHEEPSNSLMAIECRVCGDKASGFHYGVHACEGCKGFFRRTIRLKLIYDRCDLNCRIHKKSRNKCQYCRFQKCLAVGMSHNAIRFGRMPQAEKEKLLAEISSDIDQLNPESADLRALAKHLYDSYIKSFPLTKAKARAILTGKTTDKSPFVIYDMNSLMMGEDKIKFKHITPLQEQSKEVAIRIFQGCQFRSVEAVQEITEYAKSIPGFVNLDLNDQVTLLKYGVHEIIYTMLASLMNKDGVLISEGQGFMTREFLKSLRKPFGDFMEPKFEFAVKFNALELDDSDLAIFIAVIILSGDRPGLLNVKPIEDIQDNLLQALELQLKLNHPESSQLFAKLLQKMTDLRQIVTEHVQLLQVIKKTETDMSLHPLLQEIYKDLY
Procedure: To evaluate the ability of natural product extracts and compounds to induce specific binding of PPAR-γ transcription factor in nuclear extracts to immunosorbed peroxisome proliferator response element, the PPAR-α,γ,δ Complete Transcription Factor Assay Kit (Cayman Chemical Company) was used according to the kit protocol. 303 CCD-112CoN normal colon cells or Hela cells (ATCC) were treated with mace extracts or isolated compounds for 24 h, nuclear extracts were harvested using the NE-PER kit (Pierce Biotechnology), and protein content equilibrated using the Pierce BCA Protein Assay kit (Pierce Biotechnology). Specific binding was detected through quantification of absorptivity at 630 nm in a BioTek uQuant microplate reader (BioTek Instruments, Inc.). […] Licarin A derivatives 45-48 were screened through the panel of in vitro assays to evaluate their potential as antidiabetic compound leads. […] Methods for the assay were as described above.

[4] = tested on: PPAR-γ expression; assay: Larval diabetic zebrafish assay, Western blot of PPAR-γ; assay type: in vivo; settings: diabetic zebrafish larvae, 10 μM
Procedure: Western blot analysis of zebrafish expression levels for glycated hemoglobin, metabolic enzymes, and molecular targets NFκB and PPAR-γ was performed to evaluate potential lead improvement and to discover possible mechanisms of action.
as §1, with “After three hours of alloxan treatment, phase two of the treatment cycle was initiated by administering 10 μM doses of natural product compounds 41-43 (FIG. 4) or derivatives 45-48 (FIG. 6) with 0.01% DMSO in system water.” left out, “Technologies).” for “Technologies). The immunoblot samples were heated at 95° C. for 5 minutes and loaded onto NuPAGE Bis-Tris 4-12% gradient SDS-PAGE gels.”
as §2, §3

[5] = preliminary Western blot (FIG. 5), not in replicate
[6] = Table 20 summary, read-out: NFκBIC50
[7] = preliminary Western blot (FIG. 4/5)

T1 sequence (Q04206 whole entry): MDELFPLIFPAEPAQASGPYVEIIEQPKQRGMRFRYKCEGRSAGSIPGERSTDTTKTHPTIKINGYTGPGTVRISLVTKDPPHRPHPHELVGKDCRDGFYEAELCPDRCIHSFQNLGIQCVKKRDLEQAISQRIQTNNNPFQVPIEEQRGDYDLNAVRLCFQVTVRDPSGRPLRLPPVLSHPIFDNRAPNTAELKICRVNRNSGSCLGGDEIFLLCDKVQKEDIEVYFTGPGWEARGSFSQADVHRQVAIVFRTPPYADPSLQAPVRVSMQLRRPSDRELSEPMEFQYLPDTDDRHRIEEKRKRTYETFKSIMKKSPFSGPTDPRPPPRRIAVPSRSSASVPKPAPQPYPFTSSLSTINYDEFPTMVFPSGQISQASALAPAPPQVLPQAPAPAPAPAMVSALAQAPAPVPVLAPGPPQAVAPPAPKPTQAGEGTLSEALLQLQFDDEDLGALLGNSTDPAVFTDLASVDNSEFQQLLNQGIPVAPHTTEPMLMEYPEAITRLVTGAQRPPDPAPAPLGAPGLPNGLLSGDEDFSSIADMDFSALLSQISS

SMILES	HbA1C expression (band density) [1, 5]	IC50 [2, 6] [nM]	IC50 ([2]; in vitro NFκB assay) [nM]	PPAR-γ % activation ([3]; Table 14, isolates at 50 μg/mL) [%]	PPAR-γ % activation ([3]; Table 20 summary, 50 μg/mL) [%]	PPAR-γ expression (band density) [4, 7]	HbA1C expression (band density) ([1]; duplicate Western blot (FIG. 7))	IC50 ([2]; Table 13, tested at 50, 5, 0.5 and 0.05 μg/mL) [nM]	PPAR-γ activity, % as active/effective as positive control rosiglitazone ([3]; 50 μg/mL) [%]	PPAR-γ activity in vitro ([3]; preliminary screening, 50 μg/mL)	PPAR-γ expression (band density) ([4]; duplicate Western blot (FIG. 8))
C/C=C/c1cc(OC)c2c(c1)[C@H](C)[C@@H](c1ccc3c(c1)OCO3)O2 [Compound 41, licarin B]	HbA1C levels even lower than those treated with the thiazolidinedione rosiglitazone; also recorded: excellent hypoglycemic effect	479	475	45	45	did not upregulate PPAR-γ expression					
C/C=C/c1cc(OC)c2c(c1)[C@H](C)[C@@H](c1ccc(O)c(OC)c1)O2 [Compound 42, licarin A]	least effective of the three natural products at reducing HbA1C expression	30.6	30.6	81	81	greater PPAR-γ expression that 41	most effective test samples for decreasing HbA1C	30.6	81	moderate PPAR-Y activity	reliably intermediate between the rosiglitazone-treated and untreated diabetic groups
